According to patent publication US12728168B2, “Anti-CEA antibody-exatecan analog conjugate and pharmaceutical use thereof” (JIANGSU HENGRUI MEDICINE CO., LTD., priority 2019, dated 2026):

B1: mAb103: murine anti-CEA monoclonal antibody, VH SEQ ID NO: 13, VL SEQ ID NO: 14 (antibody, V domains shown)
VH: QIQLVQSGPELKKPGETVKISCKASGYTFTTYGVIWVKQAPGKGLKWMGWINTYSGVPTYADDFKGRFAFSLETSASTAFLQINNLKNEDTATYFCARKKTLTTVTPWFAYWGQGTLVTVSA
VL: DLVVTQSSSASFSLGASAKLTCTLSSQHSTYTIEWYQQQPLKPPKYVMELKKDGSHSTGDGIPDRFSGSSSGADRYLTISNIQPEDEAIYICGVGNTIKEQFVYVFGGGTKVTVL
B2: mAb67: murine anti-CEA monoclonal antibody, VH SEQ ID NO: 11, VL SEQ ID NO: 12 (antibody, V domains shown)
VH: EVQLQQSGPELVKPGASVKIYCKASGYTFTDYHMNWVKQSHGKSLEWIGDINPDIGGTSYNQNFKGKATLTVDKSSSTAYMELRSLTSEDSAVYYCSRWDFDSFANWGQGTLVTVSA
VL: DIVMTQSPASLAMSLGKRATISCRASESVSIIGTNLIHWYQQKPGQPPKLLIYHASNLETGVPARFSGSGSGADFTLTIDPVEGDDVALYYCLQSRKIPYTFGGGTKMEIK
B3: mAb63: murine anti-CEA monoclonal antibody, VH SEQ ID NO: 9, VL SEQ ID NO: 10 (antibody, V domains shown)
VH: EVQLQQSGPELVKPGASVKMSCKASGYTFTDFYMNWVRQSHGKSLEWIGDIFPKNGNTDYNRKFKDKATLTVDKSSNTVYMEFRSLTLEDSAIYFCARSGYGNYVFDYWGQGTIFTVSS
VL: DVQMTQTPSALSASLGDRVTISCRTSQDINIYLNWYQQKPDGTVKLLIYYRSGLLSGVPSRFSGSGSGTDYSLTISNLEPEDIATYFCQQGNTLPPTFGGGTKLEIK

How the values were obtained:
[1] = system: SK-BR-3 tumor cells (human breast cancer cells); test: Inhibition of in vitro proliferation of SK-BR-3 cells (CTG); type: cell-based; details: 6 days of culture
Protocol: (§1) This experiment was intended to test the inhibitory activity of the pharmaceutical compounds of the present disclosure against the in vitro proliferation of U87MG cells (Cell Bank, Chinese Academy of Sciences, Cat #TCHu138) and SK-BR-3 tumor cells (human breast cancer cells, ATCC, Cat #HTB-30). The cells were treated in vitro with a compound at different concentrations. After 6 days of culture, the proliferation of cells was tested using CTG (CellTiter-Glo® Luminescent Cell Viability Assay, Promega, Cat #G7573) reagents, and the in vitro activity of the compound was evaluated according to IC50 value.
(§2) The test for the inhibition of the in vitro proliferation of U87MG cells was taken as an example to illustrate the method of the present invention for testing the inhibitory activity of the compounds of the present invention against the in vitro proliferation of tumor cells. […]
(§3) Different test samples at 100 nM or 5 μM (100 μL) were added to the first column of a 96-well plate, and 100 μL of PBS was added to each well of the second column through the eleventh column. […] Plate reading: the 96-well cell culture plate was taken out and tested in a microplate reader (BMG labtech, PHERAstar FS) for chemiluminescence. […]
(§4) Data were processed and analyzed using Microsoft Excel and Graphpad Prism 5.

U87MG cells = test: Inhibition of in vitro proliferation of U87MG cells (CTG); type: cell-based; details: Homo sapiens, U-87 MG, 6 days of culture, read-out: IC50 (nM) U87
Protocol: as §1, §2, §3, §4

[2] = target: T1, human CEACAM1 expressed on CHO cell surface (CEACAM1-CHO) (Homo sapiens, UniProt P13688); test: FACS binding assay, CEACAM1-CHO cells
T1 construct: expressed in transfected cells; host or cells: CHO cells
T1 sequence (P13688 35-526): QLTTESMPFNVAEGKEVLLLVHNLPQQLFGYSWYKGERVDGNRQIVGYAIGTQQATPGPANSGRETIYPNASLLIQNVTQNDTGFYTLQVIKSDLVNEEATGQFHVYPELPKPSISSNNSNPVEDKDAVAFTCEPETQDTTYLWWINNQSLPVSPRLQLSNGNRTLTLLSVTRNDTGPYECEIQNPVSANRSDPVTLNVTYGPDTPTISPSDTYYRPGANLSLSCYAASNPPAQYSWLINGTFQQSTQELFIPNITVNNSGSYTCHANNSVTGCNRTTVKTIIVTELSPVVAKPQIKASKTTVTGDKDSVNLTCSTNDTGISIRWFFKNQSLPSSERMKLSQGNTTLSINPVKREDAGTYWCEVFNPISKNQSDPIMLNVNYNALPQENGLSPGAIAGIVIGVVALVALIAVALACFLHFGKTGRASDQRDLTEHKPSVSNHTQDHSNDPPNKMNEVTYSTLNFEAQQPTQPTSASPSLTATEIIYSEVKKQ
Protocol: In order to detect the binding of the antibody to the CEA protein on the cell surface, the binding activity of the antibody was determined by FACS using cells expressing CEA on the cell surface. Cells were harvested and centrifuged at 400 g at 4° C. for 5 min. Pre-cooled PBS containing FBS at final concentration 10% was added, and the mixture was centrifuged at 400 g at 4° C. for 5 min; the procedures were repeated twice. The cells were seeded into a 96-well plate at 10^5 cells/well, and 100 μL of gradient diluted antibody solution was added to each well. The plate was incubated at 4° C. for 60 min and centrifuged, and the supernatant was removed. 250 μL of pre-cooled PBS containing FBS at final concentration 10% was added to each well to resuspend the cells, and the suspension was centrifuged at 400 g at 4° C. for 5 min, followed by the removal of the supernatant; the procedures were repeated twice. 50 μL of 1:200 diluted secondary antibody Alexa Fluor@488 goat anti-human IgG (H+L) (Lifetechologies, Cat #A11013) was added. The plate was incubated in the dark at 4° C. for 45 min and centrifuged, and the supernatant was removed. 250 μL of pre-cooled PBS containing FBS at final concentration 10% was added to each cell to resuspend the cells, and the suspension was centrifuged at 400 g at 4° C. for 5 min; the procedures were repeated twice. 100 μL of pre-cooled PBS was added to each well to resuspend the cells. The plate was analyzed by a flow cytometer (BD, FACSverse) for fluorescence signal values. Higher values indicate higher binding activity of the antibody to the protein on the cell surface. Binding curves were plotted using PRISM analysis software based on the assay results, and the EC50 values for the binding activity of the antibody to the cell surface proteins human CEA (MKN45 human gastric cancer cells, Nanjing Kebai Biotechnology Co., Ltd., Cat #CBP60488), cynoCEA-CHO and CEACAM1-CHO were obtained by fitting.

Row | Molecule | IC50 [1] | IC50 (U87MG cells) | EC50 (nM) CEACAM1-CHO ([2]; Table 1, murine antibodies) | further results
1 | CC[C@@]1(O)C(=O)OCc2c1cc1n(c2=O)Cc2c-1nc1cc(F)c(C)c3c1c2[C@@H](NC(=O)[C@@H](O)C1CC1)CC3 [1-A, (S)-2-cyclopropyl-N-((1S,9S)-9-ethyl-5-fluoro-9-hydroxy-4-methyl-10,13-dioxo-2,3,9,10,13,15-hexahydro-1H,12H-benzo[de]pyrano[3′,4′:6,7]indolizino[1,2-b]quinolin-1-yl)-2-hydroxyacetamide] | 8.11 nM | 2.31 nM | – | –
2 | CC[C@@]1(O)C(=O)OCc2c1cc1n(c2=O)Cc2c-1nc1cc(F)c(C)c3c1c2[C@@H](NC(=O)[C@H](O)C1CC1)CC3 [1-B, (R)-2-cyclopropyl-N-((1S,9S)-9-ethyl-5-fluoro-9-hydroxy-4-methyl-10,13-dioxo-2,3,9,10,13,15-hexahydro-1H,12H-benzo[de]pyrano[3′,4′:6,7]indolizino[1,2-b]quinolin-1-yl)-2-hydroxyacetamide] | 0.33 nM | 0.86 nM | – | –
3 | Sanofi: the antibody in SAR-408701 (Sanofi), heavy chain SEQ ID NO: 88, light chain SEQ ID NO: 89; positive control [reference compound] | – | – | – | EC50 (nM) CEACAM1-CHO ([2]; Table 17, humanized antibodies and controls): No binding
4 | B1 | – | – | No binding | –
5 | B2 | – | – | No binding | –
6 | B3 | – | – | No binding | –
